Measurements from patent US11021481B2, “Substituted isoindolin-1-ones and 2,3-dihydro-1h-pyrrolo[3,4-c]pyridin-1-ones as HPK1 antagonists” (Nimbus Saturn, Inc., priority 2019, dated 2021).
Where a name gives a salt, the structure may show the parent alone.

Target: HPK1 (Homo sapiens (Human), UniProt Q92918)
Assay: HPK1 biochemical enzyme assay (microfluidic mobility shift assay)
Details: 1.5 nM HPK1, ATP 1 mM final, 30 min preincubation, 60 min at RT, Caliper EZ Reader; read-out: HPK1 1000UMATP caliper IC50
Summary of the method: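 Mobility shift readout of HPK1 activity after a 60 min RT reaction with 1 mM ATP, 1 μM substrate and 5 mM MgCl2. Enzyme/substrate mix was first exposed to compounds for 30 min, using ten-point curves topping at 3 μM final.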

Sequence of HPK1 (Q92918 whole entry): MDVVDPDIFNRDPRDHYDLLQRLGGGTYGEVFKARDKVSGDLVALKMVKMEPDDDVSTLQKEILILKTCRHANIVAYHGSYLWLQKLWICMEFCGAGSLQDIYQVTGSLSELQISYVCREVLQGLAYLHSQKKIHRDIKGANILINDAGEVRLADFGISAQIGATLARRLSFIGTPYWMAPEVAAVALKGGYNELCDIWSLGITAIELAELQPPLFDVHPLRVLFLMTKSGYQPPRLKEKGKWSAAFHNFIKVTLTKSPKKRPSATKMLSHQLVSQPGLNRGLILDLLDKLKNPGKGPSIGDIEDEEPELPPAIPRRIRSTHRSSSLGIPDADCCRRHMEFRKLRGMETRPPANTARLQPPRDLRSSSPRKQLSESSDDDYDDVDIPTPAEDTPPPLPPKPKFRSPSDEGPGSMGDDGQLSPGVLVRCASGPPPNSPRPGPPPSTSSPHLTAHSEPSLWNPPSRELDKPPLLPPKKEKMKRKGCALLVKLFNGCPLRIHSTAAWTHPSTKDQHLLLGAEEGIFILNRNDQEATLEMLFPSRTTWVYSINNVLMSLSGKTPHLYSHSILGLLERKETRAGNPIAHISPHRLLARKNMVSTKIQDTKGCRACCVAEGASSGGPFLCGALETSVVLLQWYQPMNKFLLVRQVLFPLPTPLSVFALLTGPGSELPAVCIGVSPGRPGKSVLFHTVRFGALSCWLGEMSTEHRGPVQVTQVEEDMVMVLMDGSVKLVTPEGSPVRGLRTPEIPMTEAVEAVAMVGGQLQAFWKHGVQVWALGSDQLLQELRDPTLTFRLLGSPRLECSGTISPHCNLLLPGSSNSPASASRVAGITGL

`Cn1ccc2c(-c3ccc(Nc4ccc(N5CCC[C@@H](N)C5)cn4)c4c3CNC4=O)ccnc21` [I-95, 7-[[5-[(3R)-3-amino-1-piperipyl]-2-pyridyl]amino]-4-(1-methylpyrrolo [2,3-b]pyridin-4-yl)isoindolin-1-one] and `Cn1ccc2c(-c3ccc(Nc4ccc(N5CCOCC5)cn4)c4c3CNC4=O)ccnc21` [I-110, 4-(1-methylpyrrolo [2,3-b]pyridin-4-yl)-7-[(5-morpholino-2-pyridyl)amino] isoindolin-1-one] cannot be ordered by IC50: less than 100 nM for the first, less than 100 nM for the second.

First: CN(C)Cc1cc(Nc2ccc(-c3cnc4cc(Cl)ccn34)c3c2C(=O)NC3)ncc1C1(O)CCOCC1 [I-633, 4-(7-chloroimidazo [1,2-a]pyridin-3-yl)-7-((4-((dimethylamino)-methyl)-5-(4-hydroxytetra-hydro-2H-pyran-4-yl)pyridin-2-yl)amino)isoin-dolin-1-one]
Second: CN(C)Cc1ccn2c(-c3ccc(Nc4ccc(N5CCC(O)CC5)cn4)c4c3CNC4=O)cnc2c1 [I-380, 4-(7-((dimethylamino)-methyl)imi-dazo[1,2-a]pyridin-3-yl)-7-((5-(4-hydroxy-piperidin-1-yl)pyridin-2-yl)amino)isoin-dolin-1-one]
The IC50 of the first is lower: less than 100 nM for the first, 100 to 1000 nM for the second.

`CN(Cc1nc(Nc2ccc(-c3cnc4cc(F)ccn34)c3c2C(=O)NC3)ccc1[C@H]1CCOC1)C1COC1` [I-743, (R)-4-(7-fluoroimidazo [1,2-a]pyridin-3-yl)-7-((6-((methyl(oxe-tan-3-yl)amino)meth-yl)-5-(tetrahydrofuran-3-yl)pyridin-2-yl)amino)isoin-dolin-1-one] and `O=C1NCc2c(-c3cnc4cc(F)ccn34)ccc(Nc3ccc(C4CCOC4)c(CNCC4CC4)n3)c21` (centres unmarked) [I-849, 7-[[6-[(cyclopropylmethylamino)methyl]-5-tetrahydrofuran-3-yl-2-pyridyl]amino]-4-(7-fluoroimidazo [1,2-a]pyridin-3-yl)isoindolin-1-one Formic acid salt] cannot be ordered by IC50: less than 100 nM for the first, less than 100 nM for the second.

`Cn1ccc2c(-c3ncc(Nc4ccc(N5CCO[C@H](C(C)(C)O)C5)cn4)c4c3CNC4=O)ccnc21` [I-471, 7-[[5-[(2S)-2-(1-hydroxy-1-methyl-ethyl)morpholin-4-yl]-2-pyridyl]amino]-4-(1-methylpyrrolo [2,3-b]pyridin-4-yl)-2,3-dihydropyrrolo [3,4-c]pyridin-1-one] and `COC[C@H]1CN(c2ccc(Nc3cnc(-c4ccnc5c4ccn5C)c4c3C(=O)NC4)nc2)CC[C@H]1O` [I-423, 7-((5-((3R,4R)-4-hydroxy-3-(methoxymeth-yl)piperidin-1-yl)pyridin-2-yl)amino)-4-(1-methyl-l H-4-pyrrolo[2,3-b]pyridin-4-yl)-2,3-dihydro-1H-pyrrolo[3,4-c]pyridin-1-one] cannot be ordered by IC50: less than 100 nM for the first, less than 100 nM for the second.

First: COc1c(F)ccn2c(-c3ccc(Nc4ccc(N5CCC(O)CC5)cn4)c4c3CNC4=O)cnc12 [I-242, 4-(7-fluoro-8-methoxy-imidazo[1,2-a]pyridin-3-yl)-7-[[5-(4-hydroxy-1-piperidyl)-2-pyridyl]amino] isoindolin-1-one]
Second: COCCNc1ccn2c(-c3ccc(Nc4ccc(N5CCC(O)CC5)cn4)c4c3CNC4=O)cnc2c1 [I-205, 7-[[5-(4-hydroxy-1-piperidyl)-2-pyridyl]-amino]-4-[7-(2-methoxyethyl-amino)imidazo [1,2-a]pyridin-3-yl]isoindolin-1-one]
The IC50 of the first is lower: less than 100 nM for the first, 100 to 1000 nM for the second.

`O=C1NCc2c(-c3cnn4c3CCC(C(=O)NC3CC3)C4)ccc(Nc3ccc(N4CCC(O)CC4)cn3)c21` (centres unmarked) [I-150, N-cyclopropyl-3-[7-[[5-(4-hydroxy-1-piperidyl)-2-pyridyl]amino]-1-oxo-isoindolin-4-yl]-4,5,6,7-tetrahydropyra-zolo[1,5-a]pyridine-6-carboxamide] and `Cc1cnc2c(-c3ccc(Nc4ccc(N5CCC(O)CC5)cn4)c4c3CNC4=O)cccn12` [I-215, 7-[[5-(4-hydroxy-1-piperidyl)-2-pyridyl]-amino]-4-(3-methylimidazo [1,2-a]pyridin-8-yl)isoindolin-1-one] fall in the same range of IC50: 100 to 1000 nM for the first, 100 to 1000 nM for the second.

`Cn1ccc2c(-c3ccc(Nc4ccc(S(C)(=O)=O)cn4)c4c3CNC4=O)ccnc21` [I-106, 4-(1-methylpyrrolo [2,3-b]pyridin-4-yl)-7-[(5-methylsulfonyl-2-pyridyl)amino] isoindolin-1-one] and `CN1CCN(c2ccc(Nc3ccc(-c4c(F)cnc5c4ccn5C)c4c3C(=O)NC4)nc2)CC1` [I-67, 4-(5-fluoro-1-methyl-pyrrolo[2,3-b]pyridin-4-yl)-7-[[5-(4-methylpiperazin-1-yl)-2-pyridyl]amino] isoindolin-1-one] cannot be ordered by IC50: less than 100 nM for the first, less than 100 nM for the second.

`CN(C)C1(C2CN(c3ccc(Nc4ccc(-c5cnc6cc(F)ccn56)c5c4C(=O)NC5)nc3)CCO2)CC1` (stereo in doubt) [I-687, (S)-7-((5-(2-(1-(dimethylami-no)cyclopropyl)morpholino)py-ridin-2-yl)amino)-4-(7-fluoroimidazo [1,2-a]pyridin-3-yl)isoindolin-1-one] and `C[C@@H](O)[C@H]1CN(c2ccc(Nc3ccc(-c4cnc5cc(F)ccn45)c4c3C(=O)NC4)nc2)CCO1` (single isomer, unassigned) [I-619] cannot be ordered by IC50: less than 100 nM for the first, less than 100 nM for the second.

`CN(C)CCN1CCC(c2ccc(Nc3ccc(-c4cnc5cc(F)ccn45)c4c3C(=O)NC4)nc2)CC1=O` (centres unmarked) [I-406, 7-((5-(1-(2-(dimethylami-no)ethyl)-2-oxopiperidin-4-yl)pyridin-2-yl)amino)-4-(7-fluoroimidazo [1,2-a]pyridin-3-yl)isoindolin-1-one] and `C[C@H](O)[C@H]1CCCN(c2ccc(Nc3ccc(-c4cnc5cc(F)ccn45)c4c3C(=O)NC4)nc2)C1` (stereo in doubt) [I-356, 4-(7-fluoroimidazo [1,2-a]pyridin-3-yl)-7-((5-((R)-3-((R)-1-hydroxyethyl)piperidin-1-yl)pyridin-2-yl)amino)isoin-dolin-1-one] cannot be ordered by IC50: less than 100 nM for the first, less than 100 nM for the second.

`O=C1NCc2c(-c3cnc4cc(C(F)(F)F)ccn34)ccc(Nc3ccc(N4CCC(O)CC4)cn3)c21` [I-140] and `O=C1NCc2c(-c3ccc4cnccn34)ccc(Nc3ccc(N4CCC(O)CC4)cn3)c21` [I-369, 7-((5-(4-hydroxypiper-idin-1-yl)pyridin-2-yl)amino)-4-(pyrrolo[1,2-a]pyrazin-6-yl)isoindolin-1-one] cannot be ordered by IC50: less than 100 nM for the first, less than 100 nM for the second.

Compared with `CN1CCCc2c(-c3ccc(Nc4ccc(N5CCNCC5)cn4)c4c3CNC4=O)ccnc21` [I-118, 4-(8-methyl-6.7-dihydro-5H-1,8-naphthyridin-4-yl)-7-[(5-piperazin-1-yl-2-pyridyl)amino] isoindolin-1-one], `O=C1NCc2c(-c3cnc4c(F)cccn34)ccc(Nc3ccc(N4CCNCC4)cn3)c21` [I-88, 4-(8-fluoroimidazo [1,2-a]pyridin-3-yl)-7-[(5-piperazin-1-yl-2-pyridyl)amino] isoindolin-1-one] is lower in IC50: 100 to 1000 nM for the first, less than 100 nM for the second.

`COc1ccc2c(-c3ncc(Nc4ccc(N5CCN(C)CC5)cn4)c4c3CNC4=O)c[nH]c2c1` [I-4, 4-(6-methoxy-1H-indol-3-yl)-7-[[5-(4-methylpiperazin-1-yl)-2-pyridyl]amino]-2,3-dihydropyrrolo [3,4-c]pyridin-1-one] and `O=C1NCc2c(-c3c[nH]c4ccccc34)ncc(Nc3ccc(N4CCNCC4)cn3)c21` [I-1, 4-(1H-indol-3-yl)-7-[(5-piperazin-1-yl-2-pyridyl)amino]-2,3-dihydropyrrolo [3,4-c]pyridin-1-one] fall in the same range of IC50: 100 to 1000 nM for the first, 100 to 1000 nM for the second.

`CN1CCC(O)(c2cccc(Nc3cnc(-c4ccnc5c4ccn5C)c4c3C(=O)NC4)n2)CC1` [I-407, 7-((6-(4-hydroxy-1-methylpiperidin-4-yl)pyridin-2-yl)amino)-4-(1-methyl-1H-pyrrolo[2,3-b]pyridin-4-yl)-2,3-dihydro-1H-pyrrolo[3,4-c]pyridin-1-one] and `CN1CCN(c2ccc(Nc3ccc(-c4nnc5ccccn45)c4c3C(=O)NC4)nc2)CC1` [I-85, 7-[[5-(4-methylpiperazin-1-yl)-2-pyridyl]amino]-4-([1,2,4]triazolo [4,3-a]pyridin-3-yl)isoindolin-1-one] cannot be ordered by IC50: less than 100 nM for the first, less than 100 nM for the second.

`CC(C)(O)[C@@H]1CN(c2ccc(Nc3ccc(-c4cnc5cc(C(F)F)ccn45)c4c3C(=O)NC4)nc2)CCO1` [I-492, 4-[7-(difluoromethyl)-imidazo[1,2-a]pyridin-3-yl]-7-[[5-[(2S)-2-(1-hydroxy-1-methyl-ethyl)morpholin-4-yl]-2-pyridyl]amino]isoindolin-1-one] and `O=C1NCc2c(-c3cnc4cc(F)ccn34)ccc(Nc3ccc(N4CCOC[C@H](O)C4)cn3)c21` [I-338, (R)-4-(7-fluoroimidazo [1,2-a]pyridin-3-yl)-7-((5-(6-hydroxy-1,4-oxazepan-4-yl)pyridin-2-yl)amino)isoin-dolin-1-one] cannot be ordered by IC50: less than 100 nM for the first, less than 100 nM for the second.

Compared with `O=C1NCc2c(-c3cnc4cc(F)ccn34)ccc(Nc3cnn(C4CCOCC4)c3)c21` [I-379, 4-(7-fluoroimidazo [1,2-a]pyridin-3-yl)-7-((1-(tetrahydro-2H-pyran-4-yl)-1H-pyrazol-4-yl)amino)isoin-dolin-1-one], `O=C1NCc2c(-c3cnc4cc(F)ccn34)ccc(Nc3ccc(N4CCC(CN5CCOCC5)CC4)cn3)c21` [I-428, 4-(7-fluoroimidazo [1,2-a]pyridin-3-yl)-7-((5-(4-(morpholinomethyl)piperidin-1-yl)pyridin-2-yl)amino)isoin-dolin-1-one] is lower in IC50: 100 to 1000 nM for the first, less than 100 nM for the second. The second is the more potent here.

`O=C1NCc2c(-c3cnc4cc(F)ccn34)ncc(Nc3ccc(N4CCCC(O)(CN5CCOCC5)C4)cn3)c21` (centres unmarked) [I-654, 4-(7-fluoroimidazo [1,2-a]pyridin-3-yl)-7-((5-(3-hydroxy-3-(morpholinomethyl)piperidin-1-yl)pyridin-2-yl)amino)-2.3-dihydro-1H-pyrrolo[3,4-c]pyridin-1-one] and `CO[C@H]1CC[C@H](CO)N(c2ccc(Nc3ccc(-c4cnn5c4CCCC5)c4c3C(=O)NC4)nc2)C1` [I-571, 7-((5-((2R,5S)-2-(hydroxymeth-yl)-5-methoxy-piperidin-1-yl)pyridin-2-yl)amino)-4-(4,5,6,7-tetrahydropyra-zolo[1,5-a]pyridin-3-yl)isoindolin-1-one] cannot be ordered by IC50: less than 100 nM for the first, less than 100 nM for the second.
